Results: patent US20080318268A1, “Devices and Methods for the Selection of Agents with Efficacy Against Biofilm” (priority 2005, published 2008)
“Also recorded” adds a separate entry of the source. Read-outs that look alike come from different tables or passages of the source.

What was measured:
Type in all cases: cell-based
[1] = system: Staphylococcus aureus (Staph) planktonic bacteria; assay: MBEC assay, planktonic Staph isolates (Example 5); settings: number of resistant isolates; 12 isolates from device associated infections; exposed 24 hours
[2] = system: planktonic Staphylococcus aureus; assay: Staphylococcus test plate, planktonic forms (Example 9); settings: breakpoint concentrations, number in the label is the concentration tested
planktonic Candida cells = assay: Planktonic antifungal sensitivity of Candida spp.; settings: all species tested
Experimental: (§1) Three clinical isolates of Candida were used in this study, including one albicans and two non-albicans species. C. albicans ATCC 14053 was obtained from the University Of Calgary, Department Of Biological Sciences. C. tropicalis 99916 and C. glabrata 14326 were obtained from the dialysate of patients undergoing continued ambulatory peritoneal dialysis (CAPD). Aspergillus fumigatus was also tested.
(§2) Biofilm susceptibility testing uses the pegged lid of the assembly, now containing biofilms formed after rocking in the tray for 24 hour. Each peg on the lid was gently washed once in 200 μl of phosphate buffered saline solution (PBSS) in a 96-well microtiter plate (Falcon). The pegged lid was then transferred to another 96 well microtiter plate containing 2 fold dilutions antifungal agent in 200 μl of RPMI 1640 (Sigma, St. Louis, Mo.) or RPMI 1640 containing 1% DMSO (see test drug section). After the pegs were exposed to the drugs for 24 hours, the pegged lid was removed and gently rinsed twice in saline. The pegged lid was then placed on a 96 well plate containing RPMI 1640 recovery medium. The pegs were sonicated for 5 minutes (Candida spp.) or 7 minutes (Aspergillus) in an ultrasonicator to dislodge adherent cells into the recovery medium. Aliquots of 20 μl of the recovery medium were spot plated on SDA (Candida spp) or Rose Bengal Agar (A. fumigatus) to obtain the MBEC. The assembly was also used to determine the minimum inhibitory concentration (MIC) and minimum fungicidal concentration (MFC). The turbidity of the wells that contained the antibiotic and planktonic cells which were shed from the biofilm was measured at 650 nm to obtain the MIC. A 20 μl sample from each well was also spot plated onto Sabouraud Dextrose agar (Candida spp) or Rose Bengal Agar (A. fumigatus) to obtain the MFC.
Minimum Inhibitory Concentrations (MIC) and Minimum Fungicidal Concentrations (MFC) were determined according to the guidelines of the National Committee for Clinical laboratory Standards (NCCLS). Briefly, Candida sp. were maintained on polystyrene spheres at −70° C. until plating. These organisms were streaked onto Sabouraud Dextrose agar (Microbiologie) plates 24 hours before test initiation. The 24 hour colonies were picked from the agar plates and placed in Muellar-Hinton Broth (MHB, Microbiologie) such that the turbidity matched a McFarland standard of 0.5. This was then diluted 1:10 in MHB to obtain a suspension of approximately 1×10^5 to 5×10^5 CFU/ml. A 5 μl volume of this suspension was added to wells containing 200 μl of antifungal agent serially diluted in RPMI 1640 media (Sigma) in a 96 well microtiter plate (Nunclon). A. fumigatus was maintained as a spore suspension at 4° C. until testing. The spore suspension (50 μl) was diluted into 250 ml of TSB, and 5 μl of this suspension was added to each test well containing dilution of antifungal agent as above.
The test wells were then incubated at 37° C. for 24 hours with the antifungal drugs. MICs for Candida were obtained after incubation by reading the turbidity at 650 nm on a microtiter plate reader (Softmax, VWR). A 20 μl aliquot of each well was also plated (SDA) and MFCs obtained from them after 24 hours incubation at 37° C. MFCs were determined for Aspergillus by plating 100 μl from each well onto Rose Bengal Agar, followed by spreading with a sterile glass spreader. The plated organisms were maintained at 25° C. for three days before colony enumeration.
Drugs tested. Itraconazole, Fluconazole, and Ketoconazole were obtained from Janssen Pharmaceuticals in Brussels, Belgium. Nystatin 5-Fluorocytosine, Griseofulvin, Amphotericin B and Polymyxin B were obtained from Sigma Chemical Co, St. Louis, Mo. 5-Fluorocytosine, polymyxin B sulphate and nystatin were dissolved in double-distilled water to a concentration of 10.24 mg/ml and diluted in the test wells through a range of 1024 μg/ml to 0.125 μg/ml in RPMI. […]

Candida biofilms = assay: Minimum biofilm eradication concentration assay, Candida spp. biofilms; settings: biofilm (sessile) Candida
Experimental: as §1
Biofilm formation and measurement of antimicrobial sensitivity of Candida and Aspergillus biofilms were performed using an assembly of the present invention. The device features a microtiter plate lid with 96 pegs or projections distributed on the lid. Each peg provided the surface for microorganism to adhere, colonize and form a uniform biofilm. The pegs fit precisely into the wells of a standard 96-well microtiter plate. The lid was used in conjunction with a base having special troughs for growing, washing, and incubating fungi. Colonies of Candida sp. were picked from 24 hour cultures on Sabouraud Dextrose agar (SDA) (BBL Microbiological Systems, Cockeysville, Md.) and placed into Mueller-Hinton Broth (MHB) (Difco Laboratories, Detroit Mich.) such that the suspension matched a McFarland standard of 1.0. This suspension was then diluted 1:30 in MHB, and 25 ml were pipetted into the trough chamber of the base. The closed assembly (lid with pegs positioned on the base) was placed on a Hoeffer Red Rocker (VWR, Scientific) set to rock the plates 3.5 cycles per minute in a 37° C. incubator. C. albicans and C. tropicalis were incubated aerobically, while C. glabrata was incubated in 10% CO2. It was determined in preliminary experiments that C. glabrata required 10% CO2 atmosphere for biofilms to form.
as §2
Drugs tested. Itraconazole, Fluconazole, and Ketoconazole were obtained from Janssen Pharmaceuticals in Brussels, Belgium. Nystatin 5-Fluorocytosine, Griseofulvin, Amphotericin B and Polymyxin B were obtained from Sigma Chemical Co, St. Louis, Mo. […]

[3] = system: Pseudomonas aeruginosa (Ps) planktonic bacteria; assay: MBEC assay, planktonic Ps isolates (Example 5)
[4] = system: Pseudomonas aeruginosa (Ps) biofilm; assay: MBEC assay, Ps biofilms (Example 5); settings: number of resistant isolates; 12 isolates from Cystic Fibrosis patients; exposed 24 hours
planktonic P. aeruginosa = assay: Pseudomonas aeruginosa biofilm assay kit, planktonic MIC reading of challenge plate (Example 8); settings: challenge 24 hours at 35° C.; breakpoint concentrations
P. aeruginosa biofilm = assay: Pseudomonas aeruginosa biofilm assay kit, biofilm MBEC reading of recovery plate (Example 8); settings: challenge 24 hours at 35° C.; recovery 20 to 24 hours; breakpoint concentrations
[5] = system: Staphylococcus aureus (Staph) biofilm; assay: MBEC assay, Staph biofilms (Example 5); settings: number of resistant isolates; 12 isolates from device associated infections; exposed 24 hours
[6] = system: Staphylococcus aureus biofilm; assay: Staphylococcus test plate, biofilm forms (Example 9); settings: breakpoint concentrations; number in the label is the concentration tested
[7] = number of resistant isolates, 12 isolates from Cystic Fibrosis patients, exposed 24 hours

## Cc1nnc(SCC2=C(C(=O)O)N3C(=O)[C@@H](NC(=O)Cn4cnnn4)[C@H]3SC2)s1 [CFZ, cefazolin]
[1]
  Staph resistance to individual antibiotics and antibiotic combinations, Planktonic: 2
[2]; listed as CFZ4
  Number of Staphylococcus aureus isolates resistant to individual antibiotics and antibiotic combinations, Planktonic: 4
[2]; listed as CFZ8
  Number of Staphylococcus aureus isolates resistant to individual antibiotics and antibiotic combinations, Planktonic: 6

## Polymyxin B
Planktonic Candida cells
  effectiveness in killing planktonic Candida cells: ineffective
Candida biofilms
  effectiveness against Candida growing as a biofilm: ineffective

## CC(C)(O/N=C(\C(=O)N[C@@H]1C(=O)N2C(C(=O)[O-])=C(C[n+]3ccccc3)CS[C@H]12)c1csc(N)n1)C(=O)O [CFTZ, ceftazidime]
[3]; [7]
  Ps resistance to individual antibiotics and antibiotic combinations, Planktonic: 3
[4]
  Ps resistance to individual antibiotics and antibiotic combinations, Biofilm: 12
Planktonic P. aeruginosa
  Number of P. aeruginosa isolates resistant to individual antibiotics and antibiotic combinations, Planktonic: 3
P. aeruginosa biofilm
  Number of P. aeruginosa isolates resistant to individual antibiotics and antibiotic combinations, Biofilm: 12

## Nc1nc(=O)[nH]cc1F [5-fluorocytosine, 5-Fluorocytosine]
Planktonic Candida cells
  effectiveness in killing planktonic Candida cells: effective

## NCC[C@H](O)C(=O)N[C@@H]1C[C@H](N)[C@@H](O[C@H]2O[C@H](CN)[C@@H](O)[C@H](O)[C@H]2O)[C@H](O)[C@H]1O[C@H]1O[C@H](CO)[C@@H](O)[C@H](N)[C@H]1O [AK, amikacin]
[3]; [7]
  Ps resistance to individual antibiotics and antibiotic combinations, Planktonic: 8
[4]
  Ps resistance to individual antibiotics and antibiotic combinations, Biofilm: 11
Planktonic P. aeruginosa
  Number of P. aeruginosa isolates resistant to individual antibiotics and antibiotic combinations, Planktonic: 8
P. aeruginosa biofilm
  Number of P. aeruginosa isolates resistant to individual antibiotics and antibiotic combinations, Biofilm: 11

## NC[C@H]1O[C@H](O[C@H]2[C@H](O)[C@@H](O[C@H]3O[C@H](CO)[C@@H](O)[C@H](N)[C@H]3O)[C@H](N)C[C@@H]2N)[C@H](N)C[C@@H]1O [TB, tobramycin]
[3]; [7]
  Ps resistance to individual antibiotics and antibiotic combinations, Planktonic: 3
[4]
  Ps resistance to individual antibiotics and antibiotic combinations, Biofilm: 12
Planktonic P. aeruginosa
  Number of P. aeruginosa isolates resistant to individual antibiotics and antibiotic combinations, Planktonic: 3
P. aeruginosa biofilm
  Number of P. aeruginosa isolates resistant to individual antibiotics and antibiotic combinations, Biofilm: 12

## O=C(O)c1cn(C2CC2)c2cc(N3CCNCC3)c(F)cc2c1=O [CIPRO, ciprofloxacin]
[1]
  Staph resistance to individual antibiotics and antibiotic combinations, Planktonic: 10
[3]
  Ps resistance to individual antibiotics and antibiotic combinations, Planktonic: 4
Planktonic P. aeruginosa
  Number of P. aeruginosa isolates resistant to individual antibiotics and antibiotic combinations, Planktonic: 4
[2]
  Number of Staphylococcus aureus isolates resistant to individual antibiotics and antibiotic combinations, Planktonic: 7

## CC(=O)N1CCN(c2ccc(OCC3COC(Cn4ccnc4)(c4ccc(Cl)cc4Cl)O3)cc2)CC1 (centres unmarked) [ketoconazole, Ketoconazole]
Planktonic Candida cells
  effectiveness in killing planktonic Candida cells: effective

## Cc1onc(-c2ccccc2Cl)c1C(=O)N[C@@H]1C(=O)N2[C@@H]1SC(C)(C)[C@@H]2C(=O)O [CLOX, cloxacillin]
[1]
  Staph resistance to individual antibiotics and antibiotic combinations, Planktonic: 3
[5]
  Staph resistance to individual antibiotics and antibiotic combinations, Biofilm: 12
[2]
  Number of Staphylococcus aureus isolates resistant to individual antibiotics and antibiotic combinations, Planktonic: 2
[6]
  Number of Staphylococcus aureus isolates resistant to individual antibiotics and antibiotic combinations, Biofilm: 12

## C[C@@H](O)[C@H]1C(=O)N2C(C(=O)O)=C(SCCN=CN)C[C@H]12 [IMP, imipenem]
[3]; [7]
  Ps resistance to individual antibiotics and antibiotic combinations, Planktonic: 12
[4]
  Ps resistance to individual antibiotics and antibiotic combinations, Biofilm: 12
Planktonic P. aeruginosa
  Number of P. aeruginosa isolates resistant to individual antibiotics and antibiotic combinations, Planktonic: 12
P. aeruginosa biofilm
  Number of P. aeruginosa isolates resistant to individual antibiotics and antibiotic combinations, Biofilm: 12

## C[C@@H]1[C@H](O)[C@@H](C)/C=C/C=C/CC/C=C/C=C/C=C/C=C/C(O[C@H]2O[C@H](C)[C@@H](O)[C@H](N)[C@@H]2O)CC2O[C@](O)(CC(O)C(O)CCC(O)CC(O)CC(O)CC(=O)O[C@H]1C)CC(O)C2C(=O)O (some centres unmarked) [nystatin, Nystatin]
Planktonic Candida cells
  effectiveness in killing planktonic Candida cells: effective
Candida biofilms
  effectiveness against Candida growing as a biofilm: effective; also recorded: most effective agents

## COC1=CC(=O)C[C@@H](C)[C@]12Oc1c(Cl)c(OC)cc(OC)c1C2=O [Griseofulvin]
Planktonic Candida cells
  effectiveness in killing planktonic Candida cells: ineffective
Candida biofilms
  effectiveness against Candida growing as a biofilm: ineffective

## C[C@H]1[C@H](NC(=O)/C(=N\OC(C)(C)C(=O)O)c2csc(N)n2)C(=O)N1S(=O)(=O)O [AZTR, aztreonam]
[3]
  Ps resistance to individual antibiotics and antibiotic combinations, Planktonic: 0
Planktonic P. aeruginosa
  Number of P. aeruginosa isolates resistant to individual antibiotics and antibiotic combinations, Planktonic: 0

## Colistin [CLO]
[3]; [7]
  Ps resistance to individual antibiotics and antibiotic combinations, Planktonic: 2
[4]
  Ps resistance to individual antibiotics and antibiotic combinations, Biofilm: 12
Planktonic P. aeruginosa
  Number of P. aeruginosa isolates resistant to individual antibiotics and antibiotic combinations, Planktonic: 2
P. aeruginosa biofilm
  Number of P. aeruginosa isolates resistant to individual antibiotics and antibiotic combinations, Biofilm: 12

## CCC[C@@H]1C[C@@H](C(=O)N[C@@H]([C@H]2O[C@H](SC)[C@H](O)[C@@H](O)[C@H]2O)[C@H](C)Cl)N(C)C1 [CLIN, clindamycin]
[1]
  Staph resistance to individual antibiotics and antibiotic combinations, Planktonic: 9
[2]; listed as CLI1
  Number of Staphylococcus aureus isolates resistant to individual antibiotics and antibiotic combinations, Planktonic: 8
[2]; listed as CLI4
  Number of Staphylococcus aureus isolates resistant to individual antibiotics and antibiotic combinations, Planktonic: 5
